Data: article PMC3752901 (Clinical cancer research : an official journal of the …, 2013)
One block for each compound: values may come before it.

What was measured:
ABCC4 = details: cited from earlier work; for Km: read-out: Michaelis-Menten constant (Km) for ABCC4
[1] = Plasma pharmacokinetics in wildtype and Abcc4; details: oral 50 mg/kg, wildtype vs Abcc4(−/−) mice
mouse Abcc4 [2] = molecular target: T1, mouse Abcc4 (Mus musculus, UniProt E9Q236); experiment: Accumulation/efflux in Saos-2 cells transfected with Abcc4; details: 100 μM, 4-h incubation
T1 sequence (E9Q236 1-1325): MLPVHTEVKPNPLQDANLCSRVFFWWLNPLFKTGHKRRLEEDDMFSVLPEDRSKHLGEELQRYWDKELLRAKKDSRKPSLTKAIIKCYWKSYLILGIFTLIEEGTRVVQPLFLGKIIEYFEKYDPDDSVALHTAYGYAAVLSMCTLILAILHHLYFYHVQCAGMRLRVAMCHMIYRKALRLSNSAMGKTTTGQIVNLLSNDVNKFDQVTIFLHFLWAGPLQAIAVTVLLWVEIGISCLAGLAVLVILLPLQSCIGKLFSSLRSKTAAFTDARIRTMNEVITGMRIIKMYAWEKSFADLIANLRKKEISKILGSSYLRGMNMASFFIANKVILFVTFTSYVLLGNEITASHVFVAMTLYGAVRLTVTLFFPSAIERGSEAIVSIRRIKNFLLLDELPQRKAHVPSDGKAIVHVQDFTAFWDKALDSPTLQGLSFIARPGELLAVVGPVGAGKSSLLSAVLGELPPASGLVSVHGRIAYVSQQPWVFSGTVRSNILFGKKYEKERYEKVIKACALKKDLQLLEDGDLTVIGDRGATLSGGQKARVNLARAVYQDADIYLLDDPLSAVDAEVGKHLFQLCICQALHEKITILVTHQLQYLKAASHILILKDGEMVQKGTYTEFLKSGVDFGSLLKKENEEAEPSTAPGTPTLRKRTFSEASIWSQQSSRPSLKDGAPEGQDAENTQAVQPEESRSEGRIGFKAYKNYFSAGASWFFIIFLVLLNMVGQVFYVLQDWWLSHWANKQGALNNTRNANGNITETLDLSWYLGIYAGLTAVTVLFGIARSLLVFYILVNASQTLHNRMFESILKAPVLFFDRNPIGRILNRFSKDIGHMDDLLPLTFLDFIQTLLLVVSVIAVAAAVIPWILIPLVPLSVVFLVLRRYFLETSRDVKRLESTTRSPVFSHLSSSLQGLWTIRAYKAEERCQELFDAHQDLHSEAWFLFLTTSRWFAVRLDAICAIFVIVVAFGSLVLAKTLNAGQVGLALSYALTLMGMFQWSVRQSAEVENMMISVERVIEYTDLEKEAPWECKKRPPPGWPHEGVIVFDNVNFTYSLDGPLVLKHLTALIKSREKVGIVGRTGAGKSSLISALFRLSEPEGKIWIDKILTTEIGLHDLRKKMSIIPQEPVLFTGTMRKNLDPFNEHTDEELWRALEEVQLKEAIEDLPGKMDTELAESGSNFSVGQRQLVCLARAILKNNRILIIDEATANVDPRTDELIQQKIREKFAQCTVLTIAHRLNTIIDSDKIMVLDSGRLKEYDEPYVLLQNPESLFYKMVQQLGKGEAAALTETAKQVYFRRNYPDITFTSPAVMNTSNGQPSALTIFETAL

mouse Abcc4 [3] = molecular target: T1, mouse Abcc4; details: 4 h
human ABCC4 = molecular target: T2, human ABCC4 (Homo sapiens, UniProt O15439); experiment: Uptake into inside-out Sf9 vesicles expressing ABCC4; details: GSH 2mM
T2 sequence (O15439 1-1325): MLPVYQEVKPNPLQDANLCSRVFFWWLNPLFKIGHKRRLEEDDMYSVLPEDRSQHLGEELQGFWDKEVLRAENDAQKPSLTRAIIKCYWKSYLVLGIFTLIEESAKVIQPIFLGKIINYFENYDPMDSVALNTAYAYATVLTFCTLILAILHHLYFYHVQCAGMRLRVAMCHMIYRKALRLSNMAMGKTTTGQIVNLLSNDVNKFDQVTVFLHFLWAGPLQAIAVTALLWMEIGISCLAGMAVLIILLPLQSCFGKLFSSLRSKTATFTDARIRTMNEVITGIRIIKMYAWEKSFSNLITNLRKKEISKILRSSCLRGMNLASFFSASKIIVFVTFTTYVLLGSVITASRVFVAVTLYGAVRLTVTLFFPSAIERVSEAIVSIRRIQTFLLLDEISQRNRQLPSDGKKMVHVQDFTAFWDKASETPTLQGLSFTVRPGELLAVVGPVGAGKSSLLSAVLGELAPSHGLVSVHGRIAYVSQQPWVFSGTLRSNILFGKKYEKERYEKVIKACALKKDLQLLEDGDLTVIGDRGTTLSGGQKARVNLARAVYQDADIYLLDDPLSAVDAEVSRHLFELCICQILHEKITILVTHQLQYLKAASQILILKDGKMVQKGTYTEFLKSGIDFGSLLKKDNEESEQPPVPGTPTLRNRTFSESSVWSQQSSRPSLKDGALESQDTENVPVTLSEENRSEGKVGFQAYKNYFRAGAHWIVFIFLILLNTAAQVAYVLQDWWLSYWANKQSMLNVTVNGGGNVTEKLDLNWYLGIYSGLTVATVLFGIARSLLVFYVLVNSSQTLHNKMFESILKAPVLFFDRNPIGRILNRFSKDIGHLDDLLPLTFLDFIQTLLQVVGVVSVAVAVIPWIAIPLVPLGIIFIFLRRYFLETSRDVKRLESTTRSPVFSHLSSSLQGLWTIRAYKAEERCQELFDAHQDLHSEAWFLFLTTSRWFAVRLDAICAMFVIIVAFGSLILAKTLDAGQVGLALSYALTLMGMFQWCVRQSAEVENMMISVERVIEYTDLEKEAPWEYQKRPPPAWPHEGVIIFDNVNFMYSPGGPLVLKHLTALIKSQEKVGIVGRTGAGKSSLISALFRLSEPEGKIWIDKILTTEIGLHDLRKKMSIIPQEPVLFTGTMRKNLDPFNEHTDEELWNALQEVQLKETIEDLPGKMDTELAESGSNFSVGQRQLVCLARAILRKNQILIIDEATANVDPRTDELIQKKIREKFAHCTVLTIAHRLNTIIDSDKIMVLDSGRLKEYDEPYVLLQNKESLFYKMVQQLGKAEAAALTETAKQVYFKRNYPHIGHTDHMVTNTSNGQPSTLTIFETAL

[4] = ref 24 (methotrexate), 14 (cefadroxil); cited from earlier work

Compound: Nc1nc2c(c(=O)[nH]1)N(C=O)C(CNc1ccc(C(=O)N[C@@H](CCC(=O)O)C(=O)O)cc1)CN2 (stereo partly drawn) [leucovorin]
- Km (ABCC4): 640 µM

- effect of Abcc4-deficiency on the oral pharmacokinetic profile [1]: not substantially affected
- transport by mouse Abcc4 (accumulation in Saos-2 cells overexpressing Abcc4 compared to control cells) (mouse Abcc4 [2]): no noticeable efflux transport
Compound: Cc1ccc(NC(=O)c2ccc(CN3CCN(C)CC3)cc2)cc1Nc1nccc(-c2cccnc2)n1 [imatinib]

- substrate of mouse Abcc4 (mouse Abcc4 [3]): substrates of mouse Abcc4
Compound: O=C(O)c1ccccc1O [salicylic acid]

Compound: C[C@H](Cn1cnc2c(N)ncnc21)OCP(=O)(O)O [tenofovir]
- Km (ABCC4): > 1000 µM

- increase of ABCC4-mediated transport by GSH (human ABCC4): about 2 fold
Compound: C[C@]12CC[C@@H]3c4ccc(O)cc4CC[C@H]3[C@@H]1CC[C@@H]2O[C@@H]1O[C@H](C(=O)O)[C@@H](O)[C@H](O)[C@H]1O [E2G, Estradiol-17β-D-glucuronide]

Compound: Nc1ncnc2c1ncn2CCOCP(=O)(O)O [adefovir]
- Km (ABCC4): > 1000 µM

- substrate of mouse Abcc4 (mouse Abcc4 [3]): substrates of mouse Abcc4
Compound: CC(=O)Oc1ccccc1C(=O)O [aspirin, acetylsalicylic acid]
- transported substrate of human ABCC4 (ABCC4): transported substrate of human ABCC4

Compound: CC1=C(C(=O)O)N2C(=O)[C@@H](NC(=O)[C@H](N)c3ccc(O)cc3)[C@H]2SC1 [cefadroxil]
- pharmacokinetic profile after oral administration in Abcc4(−/−) mice [4]: unchanged

Compound: CN(Cc1cnc2nc(N)nc(N)c2n1)c1ccc(C(=O)N[C@@H](CCC(=O)O)C(=O)O)cc1 [MTX, methotrexate]
- Km (ABCC4): 220 to 1300 µM
- pharmacokinetic profile after oral administration in Abcc4(−/−) mice [4]: unchanged
